Like-named read-outs stand apart in the source and are kept apart here.
Assays:
CYP3A5 [1] = target: T1, CYP3A5 (Homo sapiens, UniProt P20815); conditions: cited from earlier work
CYP3A7 = CYP3A7 (Homo sapiens, UniProt P24462); conditions: cited from earlier work
CYP3A4 [2] = target: T2, CYP3A4 (Homo sapiens, UniProt P08684); conditions: cited from earlier work
CYP3A = conditions: cited from earlier work
CYP3A5 [3] = target: T1, CYP3A5; conditions: cited from earlier work; remark: listed apart in the source
CYP3A4 [4] = target: T2, CYP3A4; conditions: pH 7.4
Protocol: (§1) Midazolam, ^15N3-midazolam, 1′-OH MDZ and 4-OH MDZ were provided by Roche Laboratories. All incubations were performed in duplicate in solutions containing 0.1 M potassium phosphate (pH 7.4) and 20 to 100 μg human liver microsomes or 50 to 100 μg intestinal homogenates or 10 pmol of recombinant CYP3A4 or CYP3A5 (Gentest). Midazolam (final concentration, 8 μM) was added to the diluted tissue preparations, and the mixtures were preincubated at 37° C. for 5 min. We added NADPH (final concentration, 1 mM) to initiate the reaction. Incubation of human liver microsomes lasted for 2 min; incubation of recombinant CYP3A and intestinal samples lasted for 4 min. Reactions were terminated by the addition of 1 mL of ice-cold 0.1 M Na2CO3, pH ˜11. We used NCI GC-MS to measure the quantities of extracted 1′-OH MDZ and 4-OH MDZ (ref. 14). Reaction velocities and product ratios are presented as mean±SD. Statistical comparisons of mean data for different genotypes were performed by using a 2-sided, unpaired t test with unequal variances

CYP3A5 [5] = target: T1, CYP3A5; conditions: pH 7.4
Protocol: as §1

CYP4503A5 = CYP4503A5 (Homo sapiens, UniProt P20815); conditions: cited from earlier work
Chain of CYP4503A5 (P20815 whole entry): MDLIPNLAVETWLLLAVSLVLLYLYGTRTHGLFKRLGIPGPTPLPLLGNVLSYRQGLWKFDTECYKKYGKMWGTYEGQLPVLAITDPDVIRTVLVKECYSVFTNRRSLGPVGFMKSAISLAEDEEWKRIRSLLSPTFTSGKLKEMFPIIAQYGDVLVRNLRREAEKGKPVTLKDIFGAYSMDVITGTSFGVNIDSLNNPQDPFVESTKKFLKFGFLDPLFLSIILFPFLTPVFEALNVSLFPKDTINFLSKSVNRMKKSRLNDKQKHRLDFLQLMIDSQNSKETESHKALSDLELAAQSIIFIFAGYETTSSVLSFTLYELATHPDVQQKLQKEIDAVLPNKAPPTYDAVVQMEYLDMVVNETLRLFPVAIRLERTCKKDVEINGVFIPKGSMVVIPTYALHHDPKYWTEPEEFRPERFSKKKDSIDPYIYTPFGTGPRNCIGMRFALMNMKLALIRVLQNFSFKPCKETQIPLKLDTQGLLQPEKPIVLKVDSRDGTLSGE

CYP4503A enzymes = conditions: result in words (Wandel et al.); cited from earlier work
[6] = result in words (Wrighton et al.; Gillam et al.)

T1 sequence (P20815 whole entry): as above
T2 sequence (P08684 whole entry): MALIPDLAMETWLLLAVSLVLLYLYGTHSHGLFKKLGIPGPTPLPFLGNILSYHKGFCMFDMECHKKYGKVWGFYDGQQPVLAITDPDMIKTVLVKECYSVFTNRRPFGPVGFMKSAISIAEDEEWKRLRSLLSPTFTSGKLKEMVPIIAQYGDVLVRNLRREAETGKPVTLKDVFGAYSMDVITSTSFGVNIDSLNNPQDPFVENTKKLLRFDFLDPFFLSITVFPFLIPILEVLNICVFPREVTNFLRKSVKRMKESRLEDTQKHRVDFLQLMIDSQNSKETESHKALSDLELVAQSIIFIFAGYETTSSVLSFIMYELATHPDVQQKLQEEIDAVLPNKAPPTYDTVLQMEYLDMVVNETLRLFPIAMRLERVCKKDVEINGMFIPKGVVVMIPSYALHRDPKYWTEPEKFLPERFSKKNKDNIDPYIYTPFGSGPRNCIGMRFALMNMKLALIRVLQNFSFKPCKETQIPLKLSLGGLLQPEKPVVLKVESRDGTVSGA
Chain of CYP3A7 (P24462 whole entry): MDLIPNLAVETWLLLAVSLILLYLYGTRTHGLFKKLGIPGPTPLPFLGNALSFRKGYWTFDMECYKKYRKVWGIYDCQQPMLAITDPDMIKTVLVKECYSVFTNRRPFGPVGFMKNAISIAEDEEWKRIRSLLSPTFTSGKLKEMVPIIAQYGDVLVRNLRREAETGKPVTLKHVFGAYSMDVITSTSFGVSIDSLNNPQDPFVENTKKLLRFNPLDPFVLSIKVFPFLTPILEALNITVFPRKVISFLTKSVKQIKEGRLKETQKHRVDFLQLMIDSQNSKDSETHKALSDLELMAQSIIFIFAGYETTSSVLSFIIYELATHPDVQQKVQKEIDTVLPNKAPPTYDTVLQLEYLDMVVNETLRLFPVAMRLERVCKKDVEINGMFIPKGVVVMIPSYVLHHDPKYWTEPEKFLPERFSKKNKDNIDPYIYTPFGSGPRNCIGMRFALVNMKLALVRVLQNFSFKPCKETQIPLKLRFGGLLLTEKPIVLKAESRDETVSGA

C[C@]12CCC(=O)CC1CC[C@@H]1[C@@H]2CC[C@]2(C)C(=O)CC[C@@H]12 (some centres unmarked) [Androstanedione]
CYP isoforms expressed in cells 3A5 (CYP3A5 [1]): ++ | CYP isoforms expressed in cells 3A7 (CYP3A7): ++ | CYP isoforms expressed in cells 3A4 (CYP3A4 [2]): +++

CN1C(=O)CN=C(c2ccccc2)c2cc(Cl)ccc21 [Diazepam]
Catalytic activity in human liver microsomes Child (%) (CYP3A): 140 (3-12 mo) % | Catalytic activity in human liver microsomes adult (%) (CYP3A): 100% | Catalytic activity in human liver microsomes fetus (%) (CYP3A): <5%

Cc1ncc2n1-c1ccc(Cl)cc1C(c1ccccc1F)=NC2 [Midazolam]
formation rate of 1-hydroxy-midazolam for CYP3A5 versus CYP3A4 (CYP3A5 [3]): considerably higher | rate of formation of 4-hydroxy-midazolam with CYP3A4 and CYP3A5 (CYP3A5 [3]): similar | ratio of 1′-OH MDZ to 4-OH MDZ (CYP3A4 [4]): 5.5 | ratio of 1′-OH MDZ to 4-OH MDZ (CYP3A5 [5]): 16.1 | CYP isoforms expressed in cells 3A5 (CYP3A5 [1]): +++ | alpha- to 4-hydroxylation of midazolam, CYP4503A5 versus CYP4503A3 or CYP4503A4 (CYP4503A5): far greater | increase of midazolam metabolism with CYP4503A5 expression (CYP4503A5): 2.7

C[C@]12CCC(=O)C=C1CC[C@@H]1[C@@H]2[C@@H](O)C[C@@]2(C)[C@H]1CC[C@]2(O)C(=O)CO [Cortisol]
CYP isoforms expressed in cells 3A5 (CYP3A5 [1]): ++ | CYP isoforms expressed in cells 3A7 (CYP3A7): − | CYP isoforms expressed in cells 3A4 (CYP3A4 [2]): +++

aflatoxin B1
8,9-epoxidation step (activation step) by CYP3A5 (CYP3A5 [3]): efficiently catalyzes | rate of 3α-hydroxylation (inactivation step) by CYP3A5 relative to CYP3A4 (CYP3A5 [3]): approximately 1%

NC(=O)N1c2ccccc2C=Cc2ccccc21 [Carbamazepine]
CYP isoforms expressed in cells 3A5 (CYP3A5 [1]): ++ | CYP isoforms expressed in cells 3A7 (CYP3A7): + | CYP isoforms expressed in cells 3A4 (CYP3A4 [2]): +++ | Catalytic activity in human liver microsomes adult (CYP3A; adult, carbamazepine metabolism, result in words): Present | Catalytic activity in human liver microsomes fetus (CYP3A; fetus, CBZ-E formation (?), result in words): CBZ-E

NS(=O)(=O)Cc1noc2ccccc12 [Zonisamide]
CYP isoforms expressed in cells 3A5 (CYP3A5 [1]): + | CYP isoforms expressed in cells 3A7 (CYP3A7): ++ | CYP isoforms expressed in cells 3A4 (CYP3A4 [2]): +++

aflatoxins
CYP3A5 catalytic activity towards substrate (CYP3A5 [3]): No CYP3A5 catalytic activity

CCOc1ccc2c3c1O[C@H]1[C@@H](O)C=C[C@H]4[C@@H](C2)N(C)CC[C@@]341 [Ethylmorphine]
CYP3A5 catalytic activity towards substrate (CYP3A5 [3]; [6]): considerable catalytic activity | CYP isoforms expressed in cells 3A5 (CYP3A5 [1]): ++ | CYP isoforms expressed in cells 3A4 (CYP3A4 [2]): + | Catalytic activity in human liver microsomes adult (%) (CYP3A; adult, relative to adult rate = 100%): 100% | Catalytic activity in human liver microsomes fetus (%) (CYP3A; fetus, relative to adult rate = 100%): 100%

CC(=O)[C@H]1CC[C@H]2[C@@H]3CCC4=CC(=O)CC[C@]4(C)[C@H]3CC[C@]12C [Progesterone]
CYP isoforms expressed in cells 3A5 (CYP3A5 [1]; 6β-hydroxylation): ++ | CYP isoforms expressed in cells 3A4 (CYP3A4 [2]): +++

C#C[C@]1(O)CC[C@H]2[C@@H]3CCc4cc(O)ccc4[C@H]3CC[C@@]21C [17α-ethinyl-estradiol]
CYP3A5 catalytic activity towards substrate (CYP3A5 [3]; [6]): No CYP3A5 catalytic activity

CCOC(=O)C1=C(C)NC(C)=C(C(=O)OC)C1c1cccc([N+](=O)[O-])c1 (centres unmarked) [nitrendipine]
effect on liver microsomal hydroxylation of midazolam (CYP4503A enzymes): inhibits

C[C@]12CC[C@H]3[C@@H](CCC4=CC(=O)CC[C@@]43C)[C@@H]1CC[C@@H]2O [Testosterone]
CYP isoforms expressed in cells 3A5 (CYP3A5 [1]): ++ | CYP isoforms expressed in cells 3A4 (CYP3A4 [2]): +++ | Catalytic activity in human liver microsomes newborn (%) (CYP3A): 30-40%

COc1ccc2c(c1)[C@]13CCCC[C@@H]1[C@H](C2)N(C)CC3 [Dextromethorphan]
Catalytic activity in human liver microsomes adult (%) (CYP3A): 100% | Catalytic activity in human liver microsomes fetus (%) (CYP3A): 30%

From patent publication US20060110767A1, “Genotyping assay to predict cytochrome P4503A5 exression” (priority 2001, published 2006)
